Data: PubChem BioAssay AID248 (DTP/NCI, 2004)
Values joined by “and” are separate entries in the source; they are usually repeats but may differ in a detail not shown here. Equal values may be shown once. Toxic doses and inconclusive results are not listed. No stated cut-off is given here; in the data, active means T/C of 150% or more; inactive means T/C below 125%.

Tested on: L1210 leukemia ip in BDF1 mice, survival T/C
Experiment: NCI In Vivo Anticancer Drug Screen. Data for tumor model L1210 Leukemia (intraperitoneal) in B6D2F1 (BDF1) mice
Conditions: higher = longer survival
Procedure, shortened: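 Antitumor effect is assessed in tumor-bearing animals. Survival in the compound arm is compared with a vehicle-dosed control arm and expressed as their quotient.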

Measured: T/C

CN(Cc1cnc2nc(N)nc(N)c2n1)c1ccc(C(=O)N[C@@H](CCC(=O)O)C(=O)O)cc1
inactive: endpoint: mean survival time, dose: 0.02 mg/kg/injection, schedule: Q01DX Z (ip), vehicle: saline 94 % of control | endpoint: mean survival time, dose: 0.03 mg/kg/injection, schedule: Q#A X Z (ip), vehicle: saline 107 % of control | endpoint: mean survival time, dose: 0.08 mg/kg/injection, schedule: Q01DX009 (ip), vehicle: sodium bicarbonate 99 % of control and 108 % of control | endpoint: mean survival time, dose: 0.1 mg/kg/injection, schedule: Q03HX008 (ip), vehicle: sodium bicarbonate 105 % of control | endpoint: mean survival time, dose: 0.1 mg/kg/injection, schedule: Q## X008 (other), vehicle: sodium bicarbonate 105 % of control | endpoint: mean survival time, dose: 0.12 mg/kg/injection, schedule: Q01DX Z (ip), vehicle: saline 108 % of control | endpoint: mean survival time, dose: 0.13 mg/kg/injection, schedule: Q01DX Z (sc), vehicle: saline 110 % of control | endpoint: mean survival time, dose: 0.13 mg/kg/injection, schedule: Q03HX016 (ip), vehicle: other 107 % of control | endpoint: mean survival time, dose: 0.15 mg/kg/injection, schedule: Q03HX008 (ip), vehicle: sodium bicarbonate 109 % of control | endpoint: mean survival time, dose: 0.15 mg/kg/injection, schedule: Q## X008 (other), vehicle: sodium bicarbonate 109 % of control | endpoint: mean survival time, dose: 0.19 mg/kg/injection, schedule: Q01DX009 (ip), vehicle: sodium bicarbonate 102 % of control | endpoint: mean survival time, dose: 0.19 mg/kg/injection, schedule: Q## X Z (ip), vehicle: saline 102 % of control | endpoint: mean survival time, dose: 0.38 mg/kg/injection, schedule: Q## X Z (ip), vehicle: saline 111 % of control | endpoint: mean survival time, dose: 0.49 mg/kg/injection, schedule: Q03HX003 (ip), vehicle: other 108 % of control | endpoint: mean survival time, dose: 0.49 mg/kg/injection, schedule: Q03HX004 (ip), vehicle: other 104 % of control | endpoint: mean survival time, dose: 0.49 mg/kg/injection, schedule: Q03HX005 (ip), vehicle: other 107 % of control | endpoint: mean survival time, dose: 0.49 mg/kg/injection, schedule: Q03HX006 (ip), vehicle: other 110 % of control | endpoint: mean survival time, dose: 0.5 mg/kg/injection, schedule: Q01DX006 (iv), vehicle: saline 112 % of control | endpoint: mean survival time, dose: 0.5 mg/kg/injection, schedule: Q07DX003 (ip), vehicle: saline 107 % of control | endpoint: mean survival time, dose: 0.73 mg/kg/injection, schedule: Q01DX001 (ip), vehicle: other 94 % of control | endpoint: mean survival time, dose: 0.73 mg/kg/injection, schedule: Q03HX002 (ip), vehicle: other 104 % of control | endpoint: mean survival time, dose: 0.73 mg/kg/injection, schedule: Q03HX003 (ip), vehicle: other 102 % of control | endpoint: mean survival time, dose: 0.73 mg/kg/injection, schedule: Q03HX004 (ip), vehicle: other 107 % of control | endpoint: mean survival time, dose: 0.73 mg/kg/injection, schedule: Q03HX006 (ip), vehicle: other 109 % of control | endpoint: mean survival time, dose: 0.75 mg/kg/injection, schedule: Q## X Z (ip), vehicle: other 108 % of control | endpoint: mean survival time, dose: 0.9 mg/kg/injection, schedule: Q07DX003 (ip), vehicle: saline 102 % of control | endpoint: mean survival time, dose: 1.1 mg/kg/injection, schedule: Q01DX001 (ip), vehicle: other 95 % of control | endpoint: mean survival time, dose: 1.1 mg/kg/injection, schedule: Q03HX002 (ip), vehicle: other 112 % of control | endpoint: mean survival time, dose: 1.1 mg/kg/injection, schedule: Q03HX003 (ip), vehicle: other 107 % of control | endpoint: mean survival time, dose: 1.1 mg/kg/injection, schedule: Q03HX005 (ip), vehicle: other 109 % of control | endpoint: mean survival time, dose: 1.5 mg/kg/injection, schedule: Q01DX001 (ip), vehicle: water 109 % of control and 110 % of control | endpoint: mean survival time, dose: 1.62 mg/kg/injection, schedule: Q03HX002 (ip), vehicle: other 108 % of control | endpoint: mean survival time, dose: 1.62 mg/kg/injection, schedule: Q03HX003 (ip), vehicle: other 109 % of control | endpoint: mean survival time, dose: 1.8 mg/kg/injection, schedule: Q07DX003 (ip), vehicle: saline 107 % of control | endpoint: mean survival time, dose: 2.0 mg/kg/injection, schedule: Q01DX001 (ip), vehicle: saline 107 % of control | endpoint: mean survival time, dose: 2.25 mg/kg/injection, schedule: Q01DX001 (ip), vehicle: water 111 % of control | endpoint: mean survival time, dose: 2.25 mg/kg/injection, schedule: Q## X006 (ip), vehicle: other 108 % of control | endpoint: mean survival time, dose: 3.4 mg/kg/injection, schedule: Q01DX009 (ip), vehicle: sodium bicarbonate 96 % of control | endpoint: mean survival time, dose: 3.5 mg/kg/injection, schedule: Q07DX003 (ip), vehicle: saline 111 % of control | endpoint: mean survival time, dose: 4.0 mg/kg/injection, schedule: Q01DX009 (ip), vehicle: other 93 % of control | endpoint: mean survival time, dose: 4.0 mg/kg/injection, schedule: Q01DX009 (ip), vehicle: sodium bicarbonate 95 % of control | endpoint: mean survival time, dose: 4.0 mg/kg/injection, schedule: Q01DX Z (oral), vehicle: saline 109 % of control | endpoint: mean survival time, dose: 4.0 mg/kg/injection, schedule: Q01DX Z (sc), vehicle: saline 109 % of control | endpoint: mean survival time, dose: 4.0 mg/kg/injection, schedule: Q12HX007 (ip), vehicle: other 109 % of control | endpoint: mean survival time, dose: 4.0 mg/kg/injection, schedule: Q#A X Z (ip), vehicle: saline 112 % of control | endpoint: mean survival time, dose: 5.0 mg/kg/injection, schedule: Q01DX009 (ip), vehicle: sodium bicarbonate 105 % of control | endpoint: mean survival time, dose: 6.0 mg/kg/injection, schedule: Q12HX005 (ip), vehicle: other 104 % of control | endpoint: mean survival time, dose: 6.0 mg/kg/injection, schedule: Q12HX006 (ip), vehicle: other 102 % of control | endpoint: mean survival time, dose: 6.3 mg/kg/injection, schedule: Q01DX009 (ip), vehicle: saline 108 % of control | endpoint: mean survival time, dose: 7.2 mg/kg/injection, schedule: Q## X032 (ip), vehicle: water 102 % of control | endpoint: mean survival time, dose: 8.0 mg/kg/injection, schedule: Q01DX006 (ip), vehicle: other 110 % of control | endpoint: mean survival time, dose: 8.0 mg/kg/injection, schedule: Q01DX007 (ip), vehicle: other 111 % of control | endpoint: mean survival time, dose: 8.0 mg/kg/injection, schedule: Q01DX008 (ip), vehicle: other 100 % of control | endpoint: mean survival time, dose: 8.0 mg/kg/injection, schedule: Q01DX009 (oral), vehicle: other 107 % of control | endpoint: mean survival time, dose: 8.0 mg/kg/injection, schedule: Q01DX015 (ip), vehicle: other 102 % of control | endpoint: mean survival time, dose: 8.0 mg/kg/injection, schedule: Q01DX Z (oral), vehicle: saline 97 % of control | endpoint: mean survival time, dose: 9.0 mg/kg/injection, schedule: Q01DX005 (ip), vehicle: other 100 % of control | endpoint: mean survival time, dose: 9.0 mg/kg/injection, schedule: Q12HX004 (ip), vehicle: other 111 % of control | endpoint: mean survival time, dose: 9.0 mg/kg/injection, schedule: Q## X008 (ip), vehicle: other 102 % of control | endpoint: mean survival time, dose: 13.0 mg/kg/injection, schedule: Q01DX004 (ip), vehicle: other 101 % of control | endpoint: mean survival time, dose: 13.0 mg/kg/injection, schedule: Q01DX005 (ip), vehicle: other 102 % of control | endpoint: mean survival time, dose: 13.0 mg/kg/injection, schedule: Q03HX005 (ip), vehicle: other 100 % of control | endpoint: mean survival time, dose: 13.0 mg/kg/injection, schedule: Q12HX004 (ip), vehicle: other 94 % of control | endpoint: mean survival time, dose: 13.5 mg/kg/injection, schedule: Q## X008 (ip), vehicle: other 93 % of control | endpoint: mean survival time, dose: 16.0 mg/kg/injection, schedule: Q03HX008 (ip), vehicle: other 98 % of control | endpoint: mean survival time, dose: 20.0 mg/kg/injection, schedule: Q01DX003 (ip), vehicle: other 101 % of control | endpoint: mean survival time, dose: 20.0 mg/kg/injection, schedule: Q## X008 (ip), vehicle: other 102 % of control | endpoint: mean survival time, dose: 30.0 mg/kg/injection, schedule: Q01DX003 (ip), vehicle: other 102 % of control | endpoint: mean survival time, dose: 30.0 mg/kg/injection, schedule: Q04DX004 (ip), vehicle: other 96 % of control | endpoint: mean survival time, dose: 32.0 mg/kg/injection, schedule: Q01DX001 (sc), vehicle: other 112 % of control | endpoint: mean survival time, dose: 40.0 mg/kg/injection, schedule: Q04DX003 (ip), vehicle: sodium bicarbonate 95 % of control | endpoint: mean survival time, dose: 45.0 mg/kg/injection, schedule: Q01DX002 (ip), vehicle: other 109 % of control | endpoint: mean survival time, dose: 67.0 mg/kg/injection, schedule: Q01DX002 (ip), vehicle: other 98 % of control | endpoint: mean survival time, dose: 67.0 mg/kg/injection, schedule: Q12HX002 (ip), vehicle: other 100 % of control | endpoint: mean survival time, dose: 70.0 mg/kg/injection, schedule: Q04DX002 (ip), vehicle: sodium bicarbonate 99 % of control | endpoint: mean survival time, dose: 112.0 mg/kg/injection, schedule: Q07DX003 (ip), vehicle: saline 97 % of control | endpoint: mean survival time, dose: 128.0 mg/kg/injection, schedule: Q01DX001 (oral), vehicle: other 108 % of control | endpoint: mean survival time, dose: 150.0 mg/kg/injection, schedule: Q03HX002 (ip), vehicle: other 93 % of control | endpoint: mean survival time, dose: 200.0 mg/kg/injection, schedule: Q04DX002 (ip), vehicle: saline 111 % of control | endpoint: mean survival time, dose: 250.0 mg/kg/injection, schedule: Q01DX001 (ip), vehicle: water 112 % of control | endpoint: mean survival time, dose: 256.0 mg/kg/injection, schedule: Q01DX001 (oral), vehicle: other 97 % of control | endpoint: mean survival time, dose: 256.0 mg/kg/injection, schedule: Q01DX001 (sc), vehicle: other 98 % of control | endpoint: mean survival time, dose: 300.0 mg/kg/injection, schedule: Q01DX001 (ip), vehicle: water 105 % of control | endpoint: mean survival time, dose: 375.0 mg/kg/injection, schedule: Q01DX001 (ip), vehicle: water 101 % of control | endpoint: mean survival time, dose: 512.0 mg/kg/injection, schedule: Q01DX001 (oral), vehicle: other 111 % of control | endpoint: mean survival time, dose: 37.5 micrograms/kg/injection, schedule: Q01DX009 (ip), vehicle: saline 104 % of control and 110 % of control | endpoint: mean survival time, dose: 70.0 micrograms/kg/injection, schedule: Q01DX Z (ip), vehicle: carboxymethylcellulose (CMC) 97 % of control | endpoint: mean survival time, dose: 75.0 micrograms/kg/injection, schedule: Q01DX009 (ip), vehicle: saline 107 % of control and 110 % of control | endpoint: mean survival time, dose: 100.0 micrograms/kg/injection, schedule: Q01DX015 (ip), vehicle: other 105 % of control | endpoint: mean survival time, dose: 140.0 micrograms/kg/injection, schedule: Q01DX Z (ip), vehicle: carboxymethylcellulose (CMC) 110 % of control | endpoint: mean survival time, dose: 150.0 micrograms/kg/injection, schedule: Q01DX015 (ip), vehicle: other 108 % of control | endpoint: mean survival time, dose: 6000.0 micrograms/kg/injection, schedule: Q01DX009 (ip), vehicle: Klucel (hydroxypropylcellulose) (HPC) 100 % of control | endpoint: median survival time, dose: 5.0 mg/kg/injection, schedule: Q01DX009 (ip), vehicle: other 110 % of control | endpoint: median survival time, dose: 8.0 mg/kg/injection, schedule: Q01DX001 (ip), vehicle: sodium bicarbonate 111 % of control | endpoint: median survival time, dose: 32.0 mg/kg/injection, schedule: Q01DX001 (ip), vehicle: sodium bicarbonate 110 % of control
